Results on seven compounds are retold here after EP0556720B1, “5-Aminoflavone derivatives” (KYOWA HAKKO KOGYO CO., LTD., priority 1992, dated 1993).

The subject of assay [1] is estrogen dependent human mammary cancer MCF-7. The assay can be described thus: Antitumor effects against estrogen dependent human mammary cancer MCF-7 transplanted subcutaneously in nude mice. The assay is classed as in vivo, female BALB/C-nu/nu mice. Conditions: orally, five days per week for four weeks, ratio of V/V0 of treated group to control group. On the procedure: Antitumor effects against estrogen dependent human mammary cancer MCF-7
Tumor strips (2mm x 2 mm x 2mm) of human hormone dependent mammary cancer MCF-7 were transplanted subcutaneously in the ventral part of female BALB/C-nu/nu mice (Nihon Crea), 7-9 weeks age. For promoting the growth of tumor, 12.5 µg of estradiol was intramuscularlly administered three times in the femoral region on the date of transplantation and 7 and 14 days after transplantation. 7 Days after transplantation, mice the tumor volume of which increased to 10-100 mm^3 were selected, and test compounds were orally administered repeatedly for five days per a week, for four weeks, at five animals per group. Length and breadth of the tumor were determined, and the tumor volumes were calculated by means of ellipsoid approximation according to the following equation: (Tumor volume […]= {Length (mm) x [Breadth (mm)])^2 }/2 [formula]
The tumor volume (V0) at initial administration was determined. The tumor volume (V) was determined after initiation to calculate V/V0 from which the ratio (T/C), that is, the ratio of V/V0 value of treated group relative to that of control group was obtained.

In a further assay the test system is HeLaS3 cells. The assay can be described thus: Human uterine cervix carcinoma (HeLaS3) growth inhibition test, neutral red staining. Format: cell-based. The note with it: HeLa S3, 72 hours culture with sample, absorbance at 550 nm. The protocol:
Human uterine cervix carcinoma (HeLaS3) growth inhibition test;
Each 0.1 ml of HeLaS3 cells which had been prepared to 3 x 10^4/ml using a medium (referred to as Medium A hereinafter) consisted of MEM medium, 2 mM glutamine and 10% bovine fetal serum was distributed in each well of 96 well-microtiter plate. The plate was cultured at 37 °C for 20 hours in a CO2 gas incubator, each 0.05 ml of samples (test compounds) which had been appropriately diluted with Medium A was added thereto and the mixture was cultured at 37 °C for 72 hours in a CO2 gas incubator. Supernatant was removed, each 0.1 ml of Medium A containing 0.02% neutral red was added to the residue, the mixture was cultured at 37 °C for 1 hour in a CO2 gas incubator and the cells were stained. Supernatant was removed and the residue was washed once with saline. Then, the pigment was extracted with 0.001N hydrochloric acid/30% ethanol and the absorbance at 550 nm was measured with a microplatereader.

The test system of the next assay is Bacillus subtilis #10107. The assay can be described thus: Antibacterial activity, minimum inhibition concentration by agar dilution method. The assay is classed as cell-based. Conditions: agar dilution method at pH 7.0. The protocol:
Antibacterial activity of the compound (I) against Bacillus subtilis #10107 [Minimum Inhibition Concentration (MIC; µg/ml)] is shown in Table 2. Minimum Inhibition Concentration was determined by agar dilution method at pH 7.0.
Background: Agar dilution tests growth on a series of plates holding different concentrations.

Another assay relates to MCF-7 cells. The assay is described as follows: Human mammary cancer (MCF-7) growth inhibition test, neutral red staining. Format: cell-based. The note with it: MCF7, medium with 10^-8M estradiol, 72 hours culture with sample. The protocol: Human mammary cancer (MCF-7) growth inhibition test;
Each 0.1 ml of MCF-7 cells which had been prepared to 5 x 10^4/ml using a medium (referred to as Medium B hereinafter) prepared by adding 10% bovine fetal serum, 10^-8M estradiol (manufactured by Sigma), 100 units/ml penicillin and 100 µg/ml streptomycin to medium RPMI1640 was distributed in each well of 96 well-microtiter plate. The plate was cultured at 37 °C for 20 hours in a CO2 gas incubator, each 0.05 ml of samples (test compounds) which had been appropriately diluted with Medium B was added thereto and the mixture was cultured at 37 °C for 72 hours in a CO2 gas incubator. Supernatant was removed, each 0.1 ml of Medium B containing 0.02% neutral red was added to the residue, the mixture was cultured at 37 °C for 1 hour in a CO2 gas incubator and the cells were stained. IC50 was calculated according to the same manner as that in Test 2.

Values after ≈ are worked out from the molar mass of the structure shown.

Take `Nc1ccc(-c2cc(=O)c3c(N)c(F)cc(F)c3o2)cc1` [Compound 12, 5-Amino-2-(4-aminophenyl)-6,8-difluoro-4H-1-benzopyran-4-one]: in assay [1] (Dose 6.3 mg/kg, Date 22), the T/C is recorded as 0.45. The same compound had an IC50 with HeLaS3 cells of 10 µM.

`NCCCNc1ccc(-c2cc(=O)c3c(N)c(F)ccc3o2)cc1` [Compound 16, 5-Amino-2-[4-[(3-aminopropyl)amino]phenyl]-6-fluoro-4H-1-benzopyran-4-one] displayed an MIC in the assay with Bacillus subtilis #10107 of 5.2 µg/mL (≈ 15.9 µM). The same compound returned an IC50 in the assay with HeLaS3 cells of 5.8 µM.

`NCCCNc1ccc(-c2cc(=O)c3c(N)c(F)cc(F)c3o2)cc1` [Compound 24, 5-Amino-2-[4-[(3-aminopropyl)amino]phenyl]-6,8-difluoro-4H-1-benzopyran-4-one] displayed an MIC in the assay on Bacillus subtilis #10107 of 2.6 µg/mL (≈ 7.53 µM). For the same compound, in the assay on HeLaS3 cells, the IC50 came out at 3.4 µM.

Regarding `Nc1ccc(-c2cc(=O)c3c(N)c(F)cc(F)c3o2)cc1F` [Compound 26, 5-Amino-2-(4-amino-3-fluorophenyl)-6,8-difluoro-4H-1-benzopyran-4-one], in assay [1] (Dose 25 mg/kg, Date 29), the T/C stood at 0.45. The compound further displayed an IC50 in the assay with HeLaS3 cells of 26 µM.

Turning to `CN(C)CCCCCCNc1ccc(-c2cc(=O)c3c(N)c(F)cc(F)c3o2)cc1F` [Compound 53, 5-Amino-6,8-difluoro-2-[4-[6-(N',N'-dimethylamino)hexylamino]-3-fluorophenyl]-4H-1-benzopyran-4-one], the IC50 in the assay on MCF-7 cells worked out at 6.2 µM; with HeLaS3 cells it was 6.8 µM.

On to `Nc1c(F)cc(F)c2oc(-c3ccc(NCCCCCCN4CCCC4)c(F)c3)cc(=O)c12` [Compound 54, 5-Amino-6,8-difluoro-2-[3-fluoro-4-[6-(pyrrolidin-1-yl)hexylamino]phenyl]-4H-1-benzopyran-4-one], for which the IC50 with MCF-7 cells is 5.9 µM; in the assay with HeLaS3 cells it was 6.1 µM.

As to `CCCCCCNc1c(F)cc(F)c2oc(-c3ccc(NCC(=O)OCC)c(F)c3)cc(=O)c12` [Compound 74, 6,8-Difluoro-2-(4-ethoxycarbonylmethylamino-3-fluorophenyl)-5-hexylamino-4H-1-benzopyran-4-one], the half-inhibitory concentration (IC50) in the assay with MCF-7 cells stood at 9.2 µM; with HeLaS3 cells it was 12 µM.

The term IC50 denotes the concentration needed to halve the response being measured. A high value points to a need for much substance. Usually MIC stands for the smallest concentration in the dilution series that meets the test's criterion for growth inhibition. Read a high MIC as a less susceptible organism.
